We go through 2 molecules from patent publication US20240293305A1, “COMPOSITION WITH ANTIMICROBIAL OR ANTIFUNGAL ACTIVITY COMPRISING FERMENTED SCUTELLARIA BAICALENSIS EXTRACT, FERMENTED SALVIA MILTIORRHIZA EXTRACT AND FERMENTED DRYPTERIS CCRASSIRHIZOMA EXTRACT” (Sooy-K Co., LTD., priority 2023, published 2024).

What all share (assay type): cell-based
Assay [1] has as its system Candida albicans (C. albicans, KCTC 7965). The assay is described as follows: Disc diffusion method, clear zone, C. albicans. Conditions: Table 19 Antibiotic: ketoconazole (200 μg/mL). How it is done:
(§1) As the strains used for antibacterial activity experiments, Gram-positive bacteria Staphylococcus aureus (S. aureus, KCTC 1916), Gram-negative Escherichia coli (E. coli, KCTC 2571), Pseudomonas aeruginosa (P. aeruginosa, KCTC 2513), Candida albicans (C. albicans, KCTC 7965), and Aspergillus niger (A. niger, KCTC 6196), which were purchased from the Korean collection for Type Cultures (KCTC), were stored and used (Table 5). The inhibitory zones of the extracts were measured by a test method of antibacterial activity to determine the presence or absence of antibacterial activity and to compare the degree of effectiveness of the extracts against the proliferation of bacteria. The antibacterial activity was measured by the disc diffusion method using a paper disc (size: 8 mm, Advantec, Toyo Roshi Kaisha, Ltd., Tokyo, Japan). The strains were each inoculated in an amount of one platinum loop, diluted in 4 mL of sterile water, mixed with a sterilized medium, and the mixture was poured into a prepared plate to be hardened. A 3% extract each was filtered (pore size: 0.4 μm, Advantec MFS, Inc., Tokyo, Japan), and 40 μL was taken and allowed to be absorbed onto a paper disc. After culturing for 24 hours at an appropriate temperature for each strain, the size of the transparent ring formed around the paper disc was measured. [table]
A general note: In agar diffusion tests the substance spreads into inoculated agar from a disc or well.

Assay [2] deals with Aspergillus niger (A. niger, KCTC 6196). The assay is described as follows: Disc diffusion method, clear zone, A. niger. Conditions: KCTC6196, Table 19 Antibiotic: ketoconazole (200 μg/mL), read-out: Clear zone (ø, mm) A. niger. How it is done:
as §1

Assay [3] concerns Escherichia coli (E. coli, KCTC 2571). The assay is described as follows: Disc diffusion method, clear zone, E. coli. How it is done:
as §1

Assay [4] concerns Staphylococcus aureus (S. aureus, KCTC 1916). The assay is described as follows: Disc diffusion method, clear zone, S. aureus. The protocol: as §1
Assay [5] relates to Pseudomonas aeruginosa (P. aeruginosa, KCTC 2513). The assay can be described thus: Disc diffusion method, clear zone, P. aeruginosa. The note with it: KCTC2513, Control Group Antibiotic: tetracycline (50 μg/mL), read-out: Clear Zone (ø, mm) P. aeruginosa. The protocol:
as §1

“And” between values parts separate entries of the source, which are not always exact repeats. Equal values may be shown once.

For the molecule `CC(=O)N1CCN(c2ccc(OCC3COC(Cn4ccnc4)(c4ccc(Cl)cc4Cl)O3)cc2)CC1` (centres unmarked) [ketoconazole], in assay [1], the “Clear zone (ø, mm) C. albicans” value is on record as “no antibacterial activity”. Moreover, the zone of inhibition at 200 µg/mL in assay [2] came out at 13.2 mm.

With `CN(C)[C@@H]1C(O)=C(C(N)=O)C(=O)[C@@]2(O)C(O)=C3C(=O)c4c(O)cccc4[C@@](C)(O)[C@H]3C[C@@H]12` [tetracycline], the “Clear Zone (ø, mm) E. coli” value in assay [3] (Control Group Antibiotic: tetracycline (50 μg/mL)) is 19.6 mm and 18.2 mm and 18.5 mm and 20.7 mm and 15.7 mm and 17.8 mm and 14.2 mm. In addition, the zone of inhibition at 50 µg/mL stood at 25.6 mm in assay [3] (Escherichia coli, KCTC2571, Control Group Antibiotic: tetracycline (50 μg/mL), read-out: Clear Zone (ø, mm) E. coli); 22.8 mm in assay [4] (KCTC1916, Control Group Antibiotic: tetracycline (50 μg/mL), read-out: Clear Zone (ø, mm) S. aureus); 9 mm in assay [5]. Moreover, the zone of inhibition at 100 µg/mL in assay [3] (Escherichia coli, KCTC2571, Table 19 Antibiotic: tetracycline (100 μg/mL), read-out: Clear zone (ø, mm) E. coli) amounted to 14.2 mm; in assay [4] (KCTC1916, Table 19 Antibiotic: tetracycline (100 μg/mL), read-out: Clear zone (ø, mm) S. aureus), 18.2 mm.
